Source: US11802133B2, “Heterocyclic compounds as monoacylglycerol lipase inhibitors” (Hoffmann-La Roche Inc., priority 2018, dated 2023)

Biological target: MAGL (Homo sapiens (Human), UniProt Q99685)
Assay: 2-AG assay: MAGL inhibitory activity by hydrolysis of 2-arachidonoylglycerol to arachidonic acid (mass spectrometry)
Format: biochemical
Conditions: measured in 2-AG assay (footnote [b]); 8 μM 2-arachidonoylglycerol
Experimental: Alternatively, compounds were profiled for MAGL inhibitory activity by determining the enzymatic activity by following the hydrolysis of the natural substrate 2-arachidonoylglycerol resulting in arachidonic acid, which can be followed by mass spectrometry. This assay is hereinafter abbreviated “2-AG assay”.
A C18 SPE cartridge (G9205A) was used in an acetonitrile/water liquid setup. […] The activity of the compounds was calculated based on the ratio of intensities [arachidonic acid/d8-arachidonic acid].

Chain of MAGL (Q99685 whole entry, species assumed): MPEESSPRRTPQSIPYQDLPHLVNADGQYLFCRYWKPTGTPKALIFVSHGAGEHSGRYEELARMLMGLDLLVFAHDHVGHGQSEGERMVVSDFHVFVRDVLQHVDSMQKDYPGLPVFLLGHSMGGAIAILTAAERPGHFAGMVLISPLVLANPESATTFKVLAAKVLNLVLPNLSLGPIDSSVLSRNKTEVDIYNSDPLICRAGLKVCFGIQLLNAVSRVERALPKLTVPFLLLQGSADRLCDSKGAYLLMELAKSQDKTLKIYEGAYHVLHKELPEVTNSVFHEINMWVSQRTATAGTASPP

IC50 [nM]	Structure (SMILES)
607	C[C@H]1[C@H](Oc2cc(C(F)(F)F)ccc2Br)CCN1C(=O)N1CC[C@@H]2OCC(=O)N[C@@H]2C1 [Example 248]
32	O=C1CO[C@H]2CCN(C(=O)N3CC(Oc4cccc(N5CC6(CCCO6)C5)c4Cl)C3)C[C@H]2N1 [Example 275, (+)-(4aR,8aS)-6-[3-[2-Chloro-3-(5-oxa-2-azaspiro[3.4]octan-2-yl)phenoxy]azetidine-1-carbonyl]-4,4a,5,7,8,8a-hexahydropyrido[4,3-b][1,4]oxazin-3-one]
34	Cc1cc(OCC2CCN(C(=O)N3CC[C@@H]4OCC(=O)N[C@@H]4C3)CC2)cnc1C(F)(F)F [Example 89]
48	O=C1CO[C@H]2CCN(C(=O)N3CC(Oc4cccc(Br)c4Cl)C3)C[C@H]2N1 [Example 258]
41	O=C1CO[C@H]2CCN(C(=O)N3CC(OCc4ccc(F)cc4C(F)(F)F)C3)C[C@H]2N1 [Example 280]
44	Cc1cccc(COC2CN(C(=O)N3CC[C@@H]4OCC(=O)N[C@@H]4C3)C2)c1C [Example 290]
28	CC1(F)CN(c2cc(OC3CN(C(=O)N4CC[C@@H]5OCC(=O)N[C@@H]5C4)C3)ccc2C(F)(F)F)C1 [Example 268, (+)-(4aR,8aS)-6-[3-[3-(3-Fluoro-3-methyl-azetidin-1-yl)-4-(trifluoromethyl)phenoxy]azetidine-1-carbonyl]-4,4a,5,7,8,8a-hexahydropyrido[4,3-b][l,4]oxazin-3-one]
61	Cc1cc(OC[C@H]2CCN(C(=O)N3CC[C@@H]4OCC(=O)N[C@@H]4C3)C[C@H]2C)cnc1C(F)(F)F [Example 232]
64	O=C1CO[C@H]2CCN(C(=O)N3CCC(Oc4ccc(C(F)(F)F)cc4F)CC3)C[C@H]2N1 [Example 254]
82	N#Cc1cc(C(F)(F)F)ccc1OC1CCN(C(=O)N2CC[C@@H]3OCC(=O)N[C@@H]3C2)CC1 [Example 123]
136	O=C1CO[C@H]2CCN(C(=O)N3CC(Cc4cccc(OC(F)(F)F)c4)C3)C[C@H]2N1 [Example 282]
14	O=C1CO[C@H]2CCN(C(=O)N3CCC(Oc4cccc(C(F)(F)F)c4Cl)CC3)C[C@H]2N1 [Example 257]
59	O=C1CO[C@H]2CCN(C(=O)N3CCCC(COc4ccc(F)cc4Cl)CC3)C[C@H]2N1 (stereo partly shown) [Example 140]
86	O=C1CO[C@H]2CCN(C(=O)N3CCC(Oc4ccc(Cl)c(-n5cccn5)c4)CC3)C[C@H]2N1 [Example 205]
6	O=C1CO[C@H]2CCN(C(=O)N3CC(OCc4ccc(Cl)cc4Cl)C3)C[C@H]2N1 [Example 87]
18	CC1CN(c2cc(OC3CN(C(=O)N4CC[C@@H]5OCC(=O)N[C@@H]5C4)C3)ccc2C(F)(F)F)C1 [Example 266, (+)-(4aR,8aS)-6-[3-[3-(3-Methylazetidin-l-yl)-4-(trifluoromethyl)phenoxy]azetidine-1-carbonyl]-4,4a,5,7,8,8a-hexahydropyrido[4,3-b][l,4]oxazin-3-one]
72	O=C1CO[C@H]2CCN(C(=O)N3CCC(Oc4cc(C(F)(F)F)ccc4Cl)C3)C[C@H]2N1 (stereo partly shown) [Example 284]
2600	O=C1CO[C@H]2CCN(C(=O)N3CCC(Oc4cc(C(F)(F)F)ccc4F)C3)C[C@H]2N1 (stereo partly shown) [Example 285]
14	O=C1CO[C@H]2CCN(C(=O)N3CCC(Oc4ccc(Cl)c(C(F)(F)F)c4)CC3)C[C@H]2N1 [Example 119]
40	O=C1CO[C@H]2CCN(C(=O)N3CCCC(COc4ccc(F)cc4Cl)CC3)C[C@H]2N1 (stereo partly shown) [Example 141]
5	Cc1cc(OC(F)(F)F)ccc1COC1CN(C(=O)N2CC[C@@H]3OCC(=O)N[C@@H]3C2)C1 [Example 251]
3	O=C1CO[C@H]2CCN(C(=O)N3CC(/C=C/c4c(F)cccc4C(F)(F)F)C3)C[C@H]2N1 [Example 289]
5	O=C1CO[C@H]2CCN(C(=O)N3CC(OCc4ccc(C(F)(F)F)cc4C(F)(F)F)C3)C[C@H]2N1 [Example 249]
10	Cc1ccc(COC2CN(C(=O)N3CC[C@@H]4OCC(=O)N[C@@H]4C3)C2)c(C(F)(F)F)c1 [Example 217]
8	Cc1c(COC2CN(C(=O)N3CC[C@@H]4OCC(=O)N[C@@H]4C3)C2)cccc1C(F)(F)F [Example 250]
100	O=C1CO[C@H]2CCN(C(=O)N3CC(Oc4ccc(Cl)c(C(F)(F)F)c4)C3)C[C@H]2N1 [Example 204]

IC50 [nM]	Structure (SMILES)
7	O=C1CO[C@H]2CCN(C(=O)N3CC(OCc4cc(Cl)ccc4Cl)C3)C[C@H]2N1 [Example 225]
5	Cc1cc(C(F)(F)F)ccc1COC1CN(C(=O)N2CC[C@@H]3OCC(=O)N[C@@H]3C2)C1 [Example 292]
181	N#Cc1cc(OC2CCN(C(=O)N3CC[C@@H]4OCC(=O)N[C@@H]4C3)CC2)ccc1C(F)(F)F [Example 262]
75	O=C1CO[C@H]2CCN(C(=O)N3CC(COc4ccc(C(F)(F)F)c(F)n4)C3)C[C@H]2N1 [Example 223, (4aR,8aS)-6-[3-[[6-Fluoro-5-(trifluoromethyl)-2-pyridyl]oxymethyl]azetidine-1-carbonyl]-4,4a,5,7,8,8a-hexahydropyrido[4,3-b][1,4]oxazin-3-one]
5	Cc1cc(OC(F)(F)F)ccc1COC1CN(C(=O)N2CC[C@@H]3OCC(=O)N[C@@H]3C2)C1C (stereo partly shown) [Example 252]
35	O=C1CO[C@H]2CCN(C(=O)N3CC(CC(F)(F)c4ccc(C(F)(F)F)cc4)C3)C[C@H]2N1 [Example 281]
6	Cc1ccc(/C=C/C2CN(C(=O)N3CC[C@@H]4OCC(=O)N[C@@H]4C3)C2)c(F)c1 [Example 287]
80	O=C1CO[C@H]2CCN(C(=O)N3CCC(Oc4ccc(Cl)cc4)CC3)C[C@H]2N1 [Example 210]
15	O=C1CO[C@H]2CCN(C(=O)N3CC(Oc4cccc(C5CC5)c4Cl)C3)C[C@H]2N1 [Example 259]
42	O=C1CO[C@H]2CCN(C(=O)N3CC(Oc4ccc(C(F)(F)F)c(N5CC(F)(F)C5)c4)C3)C[C@H]2N1 [Example 267, (+)-(4aR,8aS)-6-[3-[3-(3,3-Difluoroazetidin-1-yl)-4-(trifluoromethyl)phenoxy]azetidine-1-carbonyl]-4,4a,5,7,8,8a-hexahydropyrido[4,3-b][l,4]oxazin-3-one]
75	O=C1CO[C@H]2CCN(C(=O)N3CCCC(Cc4ccc(C(F)(F)F)cc4)CC3)C[C@H]2N1 (stereo partly shown) [Example 142]
871	O=C1CO[C@H]2CCN(C(=O)N3CCC(Oc4cc(-n5cncn5)cc(C(F)(F)F)c4)CC3)C[C@H]2N1 [Example 203]
12	O=C1CO[C@H]2CCN(C(=O)N3CC(OCc4cc(C(F)(F)F)cc(Oc5ccc(F)cc5)n4)C3)C[C@H]2N1 [Example 242]
84	O=C1CO[C@H]2CCN(C(=O)N3CC(Oc4ccc(Cl)c(Br)c4)C3)C[C@H]2N1 [Example 264]
3	COc1cccc(C(F)(F)F)c1CCC1CN(C(=O)N2CC[C@@H]3OCC(=O)N[C@@H]3C2)C1 [Example 218]
168	O=C1CO[C@H]2CCN(C(=O)N3CCC(COc4cccc(Cl)c4)C3)C[C@H]2N1 (stereo partly shown) [Example 90]
128	O=C1CO[C@H]2CCN(C(=O)N3CCC(Oc4cc(C(F)(F)F)ccc4F)C3)C[C@H]2N1 (stereo partly shown) [Example 286]
89	CC1(F)CN(c2cccc(OC3CN(C(=O)N4CC[C@@H]5OCC(=O)N[C@@H]5C4)C3)c2Cl)C1 [Example 273, (+)-(4aR,8aS)-6-[3-[2-Chloro-3-(3-fluoro-3-methyl-azetidin-1-yl)phenoxy]azetidine-1-carbonyl]-4,4a,5,7,8,8a-hexahydropyrido[4,3-b] [1,4] oxazin-3-one]
239	O=C1CO[C@H]2CCN(C(=O)N3CCC(Oc4cc(-n5cccn5)cc(C(F)(F)F)c4)CC3)C[C@H]2N1 [Example 201]
211	O=C1CO[C@H]2CCN(C(=O)N3CC(Oc4cc(Cl)cc(N5CCCC5)c4)C3)C[C@H]2N1 [Example 278, (+)-(4aR,8aS)-6-[3-(3-Chloro-5-pyrrolidin-l-yl-phenoxy)azetidine-1-carbonyl]-4,4a,5,7,8,8a-hexahydropyrido[4,3-b][1,4]oxazin-3-one]
61	O=C1CO[C@H]2CCN(C(=O)N3CC(Oc4ccc(C(F)(F)F)c(N5CC6(CCCCO6)C5)c4)C3)C[C@H]2N1 [Example 270, (+)-(4aR,8aS)-6-[3-[3-(5-oxa-2-azaspiro[3.5]nonan-2-yl)-4-(trifluoromethyl)phenoxy]azetidine-1-carbonyl]-4,4a,5,7,8,8a-hexahydropyrido[4,3-b][l,4]oxazin-3-one]
3000	Cc1ccc(COC2CN(C(=O)N3CC[C@@H]4OCC(=O)N[C@@H]4C3)C2)cc1C(F)(F)F [Example 294]
179	O=C1CO[C@H]2CCN(C(=O)N3CCC(Oc4cc(C(F)(F)F)ccc4F)C3)C[C@H]2N1 (stereo partly shown) [Example 283]
16	O=C1CO[C@H]2CCN(C(=O)N3CC(OCc4ccc(S(F)(F)(F)(F)F)cc4F)C3)C[C@H]2N1 [Example 240]
73	O=C1CO[C@H]2CCN(C(=O)N3CC(OCc4ccc(C(F)(F)F)cn4)C3)C[C@H]2N1 [Example 230]

Structure (SMILES)	IC50 [nM]
CC(C)(C)OC1CN(c2cccc(OC3CN(C(=O)N4CC[C@@H]5OCC(=O)N[C@@H]5C4)C3)c2Cl)C1 [Example 274, (+)-(4aR,8aS)-6-(3-(3-(3-(tert-Butoxy)azetidin-1-yl)-2-chlorophenoxy)azetidine-1-carbonyl)hexahydro-2H-pyrido[4,3-b][1,4]oxazin-3(4H)-one]	126
